Test results reported in patent US20210255205A1, “COMPOSITIONS AND METHODS FOR TREATING METABOLIC DISEASE” (THE REGENTS OF THE UNIVERSITY OF CALIFORNIA, priority 2018, published 2021).

Tests used:
[1] = system: ASTER domain from Aster-B; assay: 22-NBD-cholesterol binding competition with sterols, Aster-B; details: competitor 10 μM
Procedure: FIG. 1E: Aster-B334-562 (1-10 μM) was titrated with 10-3000 nM 22-NBD-cholesterol in PBS and fluorescent ligand-binding assays were performed. […] FIG. 1G: Aster-B334-562 was titrated with 22-NBD-cholesterol in the presence of vehicle, estradiol, or various hydroxycholesterol (HC) sterol competitors as indicated (10 μM). Results values are means±SD.
Fluorescent sterol binding assays were carried out as previously described (Petrescu et al., 2001; Wei et al., 2016) in 384-well black flat-bottom plates and equilibrated at room temperature for 1 hour. Measurements were made using a CLARIOstar (BMG LABTECH) microplate reader. The NBD fluorophore was excited with 1(ex)=470 nm and 1(em)=525 and plotted using Prism software. Dissociation constants (KD) were determined by nonlinear regression analysis of dose-response curves.
Aster-A (FIG. 15A), B (FIG. 15B) and C (FIG. 15C) was titrated with 22-NBD-cholesterol in the presence of vehicle or various HC sterol competitors as indicated (3 μM). […] Results values are means±SD.

[2] = system: Gramd1b; assay: Gramd1b gene expression by real-time PCR in macrophages; format: cell-based; details: wild-type (WT) but not LXR-null mouse macrophages; 1 μM, 16 h
Text: Values are means±SEM. Results are representative of three independent experiments. […] Input (Ctrl) served as a control for LXR enrichment. […] FIG. 1D: […] Values are means±SEM. FIG. 1E: […] FIG. 1F: […] Results values are means±SD. FIG. 1G: […] Results values are means±SD. FIG. 1H: […] Values are means±SEM. Total RNA was isolated using TRIzol reagent (Invitrogen) and reverse transcribed with the iScript cDNA synthesis kit (Biorad). cDNA was quantified by real-time PCR using SYBR Green Master Mix (Diagenode) on an ABI 7900 instrument. Gene expression levels were determined by using a standard curve. Each gene was normalized to the housekeeping gene 36B4 and was analyzed in duplicate. Primers used for real-time PCR are available upon request. […] Gramd1b was induced by a synthetic LXR agonist in wild-type (WT) but not LXR-null mouse macrophages (FIG. 1A). […] Gramd1b belongs to a family of highly-conserved genes, which have been designated Gramd1a, -b, and -c in databases. One-to-one orthologs of Gramd1b are present in all vertebrate classes (FIG. 2A). The predicted amino acid sequence of the human protein is 78% identical to that from Oreochromis niloticus (nile tilapia). These genes have not previously been characterized; their structures are incorrectly annotated in databases; and the function of their protein products is unknown. […] The protein products are referred to as Aster-A, -B, and -C.

[3] = molecular target: T1, Aster-B GRAM domain (Mus musculus, UniProt Q80TI0); assay: protein-lipid overlay (PIP Strips); format: binding; details: lipid strip, 100 pmol lipid per spot
T1 construct: B GRAM (Aster-B1-337) was conducted using PIP Strips (Echelon Biosciences); made in house; host or cells: Sf9 insect cells
T1 sequence (Q80TI0 41-377 limits assumed): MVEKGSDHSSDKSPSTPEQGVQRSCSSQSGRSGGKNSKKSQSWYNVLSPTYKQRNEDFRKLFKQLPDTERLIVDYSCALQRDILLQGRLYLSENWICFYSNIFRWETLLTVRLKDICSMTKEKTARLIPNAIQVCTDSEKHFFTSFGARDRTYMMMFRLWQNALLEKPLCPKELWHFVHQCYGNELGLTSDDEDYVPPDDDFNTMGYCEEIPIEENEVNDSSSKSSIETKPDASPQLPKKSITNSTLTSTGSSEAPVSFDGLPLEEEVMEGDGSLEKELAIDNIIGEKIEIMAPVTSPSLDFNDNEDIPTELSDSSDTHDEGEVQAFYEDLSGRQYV
Procedure: FIG. 9A: Protein-lipid overlay over purified mouse Aster-B GRAM domain with various phospholipid species. PA and PS correspond to phosphatidic acid and phosphatidylserine, respectively. FIG. 9A discloses “6xHis” as SEQ ID NO: 11. FIG. 9B: Purified Aster-B GRAM domain was incubated with sucrose-loaded heavy liposomes containing Dansyl-PE and 80-85% PC or 80-85% PS+/−5% Cholesterol. Liposomes were sedimented, washed, and analyzed by immunoblotting for associated Aster-B Gram protein (anti-His antibody). FIG. 9C: Localization of full-length and B ΔGRAM Aster-B-GFP constructs with plasma membrane (CellMask stain) expressed in HeLa cells in the presence or absence of cholesterol loading imaged by live cell confocal microscopy. […] FIG. 9E: Quantification of Aster-B PH-EGFP intensity in the TIRF plane upon cholesterol loading (left panel; n=2-3 cells, error bars+/−SD). […] TIRF videos recorded 5 slices (slices 3-5 were used to calculate FO) before cholesterol addition. […]
The Aster proteins contain an N-terminal GRAM domain, a structural motif related to the pleckstrin homology domain that is found in glucosyltransferases, Rab-like GTPase activators, myotubularins, and other membrane-associated proteins. […] Given that phosphatidylserine is highly enriched in the inner leaflet of the PM, it was further determined if the Aster-B GRAM domain was associated with phosphatidylserine-containing liposomes.

[4] = molecular target: ASTER domains from Aster-A, -B, and -C; assay: fluorescent NBD-cholesterol binding assay; parameters: species or system mouse; details: NBD-cholesterol 10-3,000 nM, ASTER-domain concentration constant; fit to a single exponential; average over the ASTER domains
Procedure: For binding and transfer studies Aster domains (Aster-A261-576, Aster-B224-560, Aster-C206-528) were expressed by baculovirus in Sf-9 insect cells with an N-terminal FLAG tag and a C-terminal 6× His Tag (“6× His Tag” disclosed as SEQ ID NO: 11). Proteins were expressed with P3 baculovirus for 48 hours at 27° C. Cells were recovered by centrifugation, lysed by sonication. Insoluble material was pelleted at 16,000×g for 40 minutes. Soluble protein was first purified using a Ni-NTA column (Qiagen, 30210) and eluted with 250 mM imidazole PBS buffer after extensive washing. Following dialysis proteins were purified using FLAG M2 affinity gel (Sigma A2220) columns and eluted with 100 μg/mL 1× FLAG peptide after washing for ten column volumes. Proteins were then either dialyzed to remove the FLAG peptide or purified further by size exclusion chromatography.
Fluorescent sterol binding assays were carried out as previously described (Petrescu et al., 2001; Wei et al., 2016) in 384-well black flat-bottom plates and equilibrated at room temperature for 1 hour. Measurements were made using a CLARIOstar (BMG LABTECH) microplate reader. The NBD fluorophore was excited with 1(ex)=470 nm and 1(em)=525 and plotted using Prism software. Dissociation constants (KD) were determined by nonlinear regression analysis of dose-response curves. […]

[5] = system: 3T3-L1 cells; assay: Aster-A ASO knockdown, SREBP-2 pathway and gene/protein expression; format: cell-based, murine
Procedure: FIG. 13A: Immunoblot analysis of membrane (top) and nuclear (bottom) protein levels in 3T3-L1 cells treated for 48 h with control or Aster-A-specific ASO and then for the indicated times with cyclodextrin-cholesterol. Calnexin was used as a membrane loading control and Lamin A/C as a nuclear loading control. FIG. 13B: Real-time PCR analysis of gene expression in 3T3-L1 cells treated for 48 h with control or Aster-A-specific ASO and then for the indicated times with cyclodextrin-cholesterol. ***p<0.001. FIG. 13C: Real-time PCR analysis of Abca1 expression in 3T3-L1 cells treated for 48 h with control or Aster-A-specific ASO and then for the indicated times with cyclodextrin-cholesterol. **p<0.01; ***p<0.001. FIG. 13D: Time course of cholesteryl ester formation in 3T3-L1 fibroblasts treated with control or Aster-A-specific ASO for 48 h. Cells were incubated with [^3H]oleate for the indicated time, CE was isolated by TLC, and the incorporation of label into CE quantified by scintillation counting and normalized to protein (mg). *p<0.05; ***p<0.001. FIG. 13E: Expression levels of the indicated genes in adrenal glands from WT and Aster-B KO mice (mean±SEM; N=6-8 per group). Statistical analysis was performed using Student's t-test. Values are means±SEM. *p<0.05; **p<0.01; ***p<0.001; ****p<0.0001. FIG. 13F: Immunoblot analysis of membrane (top) and nuclear (bottom) protein levels in adrenals from WT and Aster-B KO mice (n=5). Calnexin was used as a membrane loading control and Lamin A/C as a nuclear loading control. FIG. 13G: Serum cholesterol levels in WT and Aster-B KO mice that were fasting for five h (mean±SEM; N=6 per group). FIG. 13H: Serum corticosterone levels measured by ELISA in WT and Aster-B KO mice that were fed ad-lib or fasted overnight (˜16 hours). N=4 per group. Statistical analysis was performed using Student's t-test. Values are mean±SEM. *p<0.05; **p<0.01; ***p<0.001; ****p<0.0001.
Generation 2.5 constrained ethyl ASOs were synthesized as described previously (Seth et al., 2009). For in vitro knockdown studies, control or Aster-A ASO ([…] (SEQ ID NO: 13)) was used. Undifferentiated murine 3T3-L1 cells were plated in 10% FBS DMEM on Day 0. On Day 1 cells were washed and supplemented with 1% LPDS. Cells were then transfected with ASOs using Dharmafect 1 reagent per the manufacturer's recommendations for knockdown studies (Dharmacon, 50 nM final concentration). On Day 2, the medium was changed to fresh DMEM with 1% LPDS, simvastatin (5 μM) and mevalonate (50 μM). On Day 3 cells were treated as described in FIG. 7A and samples were collected. The rate of incorporation of [^3H]oleate into cholesteryl [^3H]oleate was performed on Day 3 as previously described (Goldstein et al., 1983).
The consequence of loss of Aster function for sterol movement from the PM to the ER in cultured cells was investigated. Since Aster-B expression is minimal in most cultured cell lines, knockdown Aster-A expression, which is abundant 3T3-L1 cells, was chosen. When ER cholesterol levels rise, cells respond first by suppressing SREBP-2 cleavage (thereby blocking sterol synthesis) and second by activating ACAT-dependent CE synthesis. Cholesterol movement to the ER following exogenous delivery was assessed by measuring two endpoints: 1. the activity of the SREBP-2 pathway and 2. the formation of cholesterol esters. […] The fact that some suppression of the SREBP-2 pathway at later time points was still observed even with Aster-A ASO was not unexpected, since vesicular sterol transport pathways were presumably still operative.

[6] = system: 3T3-L1 cells; assay: cholesteryl ester formation from [^3H]oleate after Aster-A ASO; format: cell-based, murine
Procedure: FIG. 13A: Immunoblot analysis of membrane (top) and nuclear (bottom) protein levels in 3T3-L1 cells treated for 48 h with control or Aster-A-specific ASO and then for the indicated times with cyclodextrin-cholesterol. Calnexin was used as a membrane loading control and Lamin A/C as a nuclear loading control. FIG. 13B: Real-time PCR analysis of gene expression in 3T3-L1 cells treated for 48 h with control or Aster-A-specific ASO and then for the indicated times with cyclodextrin-cholesterol. ***p<0.001. FIG. 13C: Real-time PCR analysis of Abca1 expression in 3T3-L1 cells treated for 48 h with control or Aster-A-specific ASO and then for the indicated times with cyclodextrin-cholesterol. **p<0.01; ***p<0.001. […] Cells were incubated with [^3H]oleate for the indicated time, CE was isolated by TLC, and the incorporation of label into CE quantified by scintillation counting and normalized to protein (mg). *p<0.05; ***p<0.001. […] FIG. 13H: Serum corticosterone levels measured by ELISA in WT and Aster-B KO mice that were fed ad-lib or fasted overnight (˜16 hours). […]
To assess the effects of Aster deficiency on CE production, cells were incubated in the presence of [^3H]oleate, treated with cyclodextrin-cholesterol complexes, and the incorporation of label into CE was quantified. […]

For `C[C@H](CCCC(C)(C)O)[C@H]1CC[C@H]2[C@@H]3CC=C4C[C@@H](O)CC[C@]4(C)[C@H]3CC[C@]12C` [25-HC, 25-hydroxycholesterol], the “inhibition of binding of NBD-cholesterol to the ASTER domain from Aster-B” value (“inhibition of binding of NBD-cholesterol” for short) [1] was “inhibited”.

`O=C(O)Cc1cccc(OCCCN(Cc2cccc(C(F)(F)F)c2Cl)CC(c2ccccc2)c2ccccc2)c1` [synthetic LXR agonist, GW3965] was tested, and the Gramd1b expression [2] was “induced”.

In the case of “phosphatidic acid [phosphatidic acid (PA)]”, the “interaction with purified Aster-B GRAM domain” value [3] is reported as “interacted strongly”.

For `CC(C)CCC[C@@H](C)[C@H]1CC[C@H]2[C@@H]3CC=C4C[C@@H](O)CC[C@]4(C)[C@H]3CC[C@]12C` [cholesterol], the “inhibition of binding of NBD-cholesterol” value [1] was “inhibited”.

For `C[C@H](CNc1ccc([N+](=O)[O-])c2nonc12)[C@H]1CC[C@H]2[C@@H]3CC=C4C[C@@H](O)CC[C@]4(C)[C@H]3CC[C@]12C` [NBD-cholesterol, 22-NBD-cholesterol], the Kd [4] was under 100 nM.

With `CC(C)CCC[C@](C)(O)[C@H]1CC[C@H]2[C@@H]3CC=C4C[C@@H](O)CC[C@]4(C)[C@H]3CC[C@@]21C` [20α-HC, 20α-hydroxycholesterol] the “inhibition of binding of NBD-cholesterol” value [1] was “inhibited”.

`CC(C)CCC[C@@H](C)[C@H]1CC[C@H]2[C@@H]3CC=C4[C@@H](O)[C@@H](O)CC[C@]4(C)[C@H]3CC[C@]12C` [4β-hydroxycholesterol] was tested, and the “inhibition of binding of NBD-cholesterol” value [1] was “comparatively poor competitors”.

With `CC(C)CCC[C@@H](C)[C@H]1CC[C@H]2[C@@H]3[C@@H](O)C=C4C[C@@H](O)CC[C@]4(C)[C@H]3CC[C@]12C` [7β-hydroxycholesterol] the “inhibition of binding of NBD-cholesterol” value [1] was “comparatively poor competitors”.

In the case of “Aster-A-specific ASO: Generation 2.5 constrained ethyl ASO, GTGGAATTTATTCAGG (SEQ ID NO: 13) (Generation 2.5 constrained ethyl (cEt) ASO, modification pattern not given here)”, the Gramd1a expression ([5]; ASO 50 nM, 48 h) is reported as “nearly abolished”, the LDLR protein levels ([5]; ASO 48 h) is reported as “increased” and the SREBP-2 processing ([5]; ASO 48 h) is reported as “induction”. The “expression of SREBP-2 target genes, including Hmcgr, and Hmgcs” value ([5]; ASO 48 h) was “increased”, the “ability of exogenously added cyclodextrin-cholesterol to suppress SREBP-2 processing” value ([5]; Aster-A silenced cells) was “clearly delayed” and the “expression of Abca1 (protein and mRNA)” value ([5]; absence of Aster-A) was “reciprocally reduced”. For the same compound, the “rate at which cholesterol delivered to the PM was incorporated into CE” value ([6]; [^3H]oleate, cyclodextrin-cholesterol) was “markedly slower” and the “amount of CE formed relative to control cells” value ([6]; two hours after cholesterol addition) was “less than 25%”.

With `CC(C)CC[C@@H](O)[C@@H](C)[C@H]1CC[C@H]2[C@@H]3CC=C4C[C@@H](O)CC[C@]4(C)[C@H]3CC[C@]12C` [22R-HC, 22-R-hydroxycholesterol] the “inhibition of binding of NBD-cholesterol” value [1] was “inhibited”.

With `CC(C)CC[C@H](O)[C@@H](C)[C@H]1CC[C@H]2[C@@H]3CC=C4C[C@@H](O)CC[C@]4(C)[C@H]3CC[C@]12C` [22S-hydroxycholesterol] the “inhibition of binding of NBD-cholesterol” value [1] was “comparatively poor competitors”.
